# Assays:
# S. pneumoniae [1] = assay: Murine thigh-infection model; assay type: in vivo, mice; conditions: for 1 Log Kill mg/kg/72 h / 2 Log Kill mg/kg/72 h: q 72 h regimen; for 1 log kill dose / 2 log kill dose: total dose over 6 days
# Description: Each point represents the mean of 4 thighs. Five dose levels, ranging 16-fold were used.
# Five different doses (two-fold increases) were used. Study against S. aureus utilized total dose (mg/kg/6 d) levels ranging from 30 to 480 mg/kg/6 d. […] Each point represents the mean of 4 thighs.
# Each point represents the mean of four thighs.
# Each point represents the mean value from 4 thighs. The static dose, and the doses associated with a 1 and 2 log kill were calculated from the parameters estimated by non-linear regression using the Hill equation.
# [2] = Plasma pharmacokinetics in thigh-infected neutropenic mice; conditions: 2.5-80 mg/kg intraperitoneal
# Description: Neutropenia in this and all other studies was produced by injections of cyclophosphamide, 150 mg/kg 4 days prior to study, 100 mg/kg 1 day prior to study and 100 mg/kg every 48 h after start of infection until end of study. […] Doses of 2.5, 5, 10, 20, 40, and 80 mg/kg were studied. Drug was administered by intraperitoneal injection of 0.2 ml volume. Blood was removed from groups of three mice by retroorbital aspiration into heparinized capillary tubes at 0.5, 1, 2, 4, 6, 24, 48, 72, and 96 hours after dosing. […] AUC was calculated by the trapezoidal rule from mean concentrations.
# [3] = Pharmacokinetics and renal excretion in healthy subjects; assay type: in vivo, human; conditions: single 1000 mg IV
# Description: Blood samples were drawn into heparinized tubes and centrifuged. Plasma was separated and stored frozen at −20° C. until time of assay. Plasma and urine samples were assayed for dalbavancin using validated LC/MS/MS methods. […] The peak concentration (Cmax) values were obtained directly from the observed data. The area under the plasma concentration-time curve (AUC) was calculated using the linear trapezoidal rule. Clearance (CL) was computed as dose/AUC. The elimination half life (t1/2) was estimated by linear regression of the log-linear portion of the log concentration versus time curve. Estimates of the volume of distribution (VZ) was calculated using the regression parameters, while the volume of distribution at steady state (Vss) was calculated from the area under the first moment curve (AUMC) multiplied by the dose and divided by AUC. The cumulative amount of dalbavancin excreted in urine was determined as the integrand of the urine excretion rate (AURC). CLR, or renal clearance, was calculated as the ratio: CLR=AURC/AUC.
# Gram-positive pathogen = assay: Phase II SSTI trial: microbiologic response, all organisms; assay type: in vivo, human; conditions: microbiologically-evaluable population
# Description: Microbiological outcome, a secondary efficacy variable, was assessed in the subpopulation of patients who had microbiologically documented SSTI (i.e., at least one identified baseline pathogen). A microbiologic response was assessed for each Gram-positive pathogen identified at baseline (i.e., eradication, presumed eradication, persistence, presumed persistence). For patients for whom follow-up cultures were not performed, the microbiologic responses for baseline pathogens were presumed on the basis of the clinical response. Microbiologic response by patient at the EOT and FU visits was graded as success (i.e., all Gram-positive organisms eradicated or presumed eradicated) or failure (i.e., at least one Gram-positive organism persisted or presumed to have persisted, multiple pathogens with partial eradication). At both the EOT and FU visits, colonization and superinfection were assessed. At the FU visit, a patient's bacteriological response could also include recurrence.
# [4] = tested on: 3797 S aureus clin. Isolate GISA; assay: MIC (microbiological activity); assay type: cell-based
# [5] = Pharmacokinetics in renal impairment and ESRD (VER001-3, VER001-11, VER001-13)
# Description: Clinical Study VER001-13 examined subjects with mild and moderate renal impairment and Clinical Study VER001-11 examined subjects with severe renal impairment and subjects with end-stage renal disease (ESRD). Matched control subjects were enrolled in all studies. […] Subjects with ESRD were dependent on dialysis through the course of the study (3 times weekly).
# S. pneumoniae [6] = assay: MIC of study organisms (NCCLS microdilution); assay type: cell-based; conditions: five pneumococcal organisms
# Description: (§1) MICs were determined in MHB by standard NCCLS microdilution techniques. […] All MICs were performed at least in duplicate.
# S. aureus [7] = assay: MIC of study organisms (NCCLS microdilution); assay type: cell-based; conditions: for MBC: Staphylococcus aureus
# Description: as §1
# [8] = tested on: Gram-positive isolates, including MRSA; assay: Dalbavancin MIC of baseline Gram-positive pathogens (SSTI trial); assay type: cell-based; conditions: for Dalbavancin MIC, Miscellaneous Streptococcus and nontypeable strains: baseline isolates, MITT
# Excerpt: The most common pathogen was S. aureus.
# [9] = Pharmacokinetics in hepatic impairment (VER001-12); assay type: in vivo, human; conditions: 1000 mg Day 1 and 500 mg Day 8, Mean (±SD)
# Description: The study enrolled otherwise healthy subjects with mild, moderate, or severe hepatic impairment (Child-Pugh scores 5 to 6, 7 to 9, and 10 to 15, respectively) and matched control subjects with normal hepatic function.
# MRSA Staph. aureus 3817 = assay: Staph. aureus murine septicaemia, ED50; assay type: in vivo; conditions: Staphylococcus aureus, sc, 10 min
# [10] = Phase II SSTI trial: safety (adverse events); parameters: species or system human; conditions: in vivo
# Description: Each patient who received at least one dose of study drug (ITT population) was evaluated for drug safety through monitoring of adverse events (AE), including abnormal clinical laboratory test results and vital signs. AE were rated by the investigator as to their severity (mild, moderate, severe, life-threatening), and by the relationship to the study drug (not related, unlikely related, possibly related, or probably related).
# S. aureus [11] = assay: MIC of study organisms (NCCLS microdilution); assay type: cell-based
# [12] = both, human, in vivo
# Description: Male and female subjects between ages 18 and 80 were eligible for enrollment. Subjects had to be within −10% to +50% of ideal body weight for their sex, height, and body frame.
# The peak concentrations (Cmax) were obtained directly from the observed data. The area under the plasma concentration-time curve (AUC) were calculated using the linear trapezoidal rule.
smiles,measurement,setting,value
CN[C@H]1C(=O)N[C@@H]2Cc3ccc(cc3)Oc3cc4cc(c3O[C@@H]3O[C@H](C(=O)O)[C@@H](O)[C@H](O)[C@H]3NC(=O)CCCCCCCCC(C)C)Oc3ccc(cc3Cl)[C@@H](O)[C@@H]3NC(=O)[C@H](NC(=O)[C@@H]4NC(=O)[C@@H](NC2=O)c2cc(cc(O)c2Cl)Oc2cc1ccc2O)c1ccc(O)c(c1)-c1c(O[C@H]2O[C@H](CO)[C@@H](O)[C@H](O)[C@@H]2O)cc(O)cc1[C@@H](C(=O)NCCCN(C)C)NC3=O [Dalbavancin],1 Log Kill mg/kg/72 h,S. pneumoniae [1]; Mean ± SD of S. pneumoniae strains,0.93 ± 0.24 mg/kg/72 h
same,24 h AUC/MIC values lower with every 72 h than every 24 h dosing,"S. pneumoniae [1]; S. pneumoniae and S. aureus, static dose, 1 and 2 log kill",1.3 to 2.4 fold
same,1 Log Kill mg/kg/72 h,"S. pneumoniae [1]; SP1199, 6 days of therapy",0.85 mg/kg/72 h
same,2 Log Kill mg/kg/72 h,"S. pneumoniae [1]; SP1199, 6 days of therapy",0.99 mg/kg/72 h
same,1 Log Kill mg/kg/72 h,"S. pneumoniae [1]; SP1325, 6 days of therapy",0.99 mg/kg/72 h
same,1 Log Kill mg/kg/72 h,"S. pneumoniae [1]; SP1396, 6 days of therapy",0.61 mg/kg/72 h
same,2 Log Kill mg/kg/72 h,"S. pneumoniae [1]; SP1396, 6 days of therapy",0.69 mg/kg/72 h
same,1 log kill dose,"S. pneumoniae [1]; SP10813, q 12 h",2.8 mg/kg
same,2 log kill dose,"S. pneumoniae [1]; SP10813, q 12 h",3.5 mg/kg
same,1 log kill dose,"S. pneumoniae [1]; SP10813, q 24 h",1.54 mg/kg
same,2 log kill dose,"S. pneumoniae [1]; SP10813, q 24 h",1.75 mg/kg
same,1 log kill dose,"S. pneumoniae [1]; SP10813, q 72 h",0.77 mg/kg
same,2 log kill dose,"S. pneumoniae [1]; SP10813, q 72 h",0.82 mg/kg
same,1 Log Kill mg/kg/72 h,"S. pneumoniae [1]; SP10813, 6 days of therapy",0.77 mg/kg/72 h
same,2 Log Kill mg/kg/72 h,"S. pneumoniae [1]; SP10813, 6 days of therapy",0.82 mg/kg/72 h
same,drop in cfu over the 6 day study,S. pneumoniae [1]; all strains,> 4 log10
same,"less drug required against pneumococci than S. aureus, based upon 24 h AUC/MIC",S. pneumoniae [1]; every 24 h dosing,12 to 23 fold
same,free drug 24 h AUC/MIC associated with a static effect,"S. pneumoniae [1]; every 72 h dosing, 6 days",7.2±4.5
same,free drug AUC/MIC over the 6 days of therapy required for efficacy,"S. pneumoniae [1]; net static effect, 1 or 2 log kill",~100
same,reduction in doses necessary for efficacy in presence of neutrophils,"S. pneumoniae [1]; normal vs neutropenic mice, 24-hour dosing, not statistically significant",1.7- to 2.1 fold
same,half-life,[2],0.317 to 0.546 days
same,t1/2,[3],9 to 12 days
same,"eradication/presumed eradication rate at FU, all organisms",Gram-positive pathogen; single-dose dalbavancin,58%
same,microbiologic success rate at EOT,Gram-positive pathogen; single-dose dalbavancin,38.5%
same,microbiologic success rate at FU,Gram-positive pathogen; single-dose dalbavancin,27.3%
same,"eradication/presumed eradication rate at FU, all organisms",Gram-positive pathogen; two-dose dalbavancin,92%
same,microbiologic success rate at EOT,Gram-positive pathogen; two-dose dalbavancin,72.7%
same,microbiologic success rate at FU,Gram-positive pathogen; two-dose dalbavancin,72.7%
same,MIC,[4],2 µg/mL
same,t1/2,"[5]; ESRD Postdialysis, VER001-11, 500 mg",14.5 days
same,t1/2,"[5]; ESRD Predialysis, VER001-11, 500 mg",15.7 days
same,t1/2,"[5]; Mild Renal Impairment, VER001-13, 1000 mg",16.2 days
same,t1/2,"[5]; Moderate Renal Impairment, VER001-13, 1000 mg",18 days
same,t1/2,"[5]; Normal Renal Function, VER001-2, 1120 mg",6.21 days
same,t1/2,"[5]; Normal Renal Function, VER001-11, 500 mg",13.9 days
same,t1/2,"[5]; Normal Renal Function, VER001-13, 1000 mg",17.4 days
same,t1/2,"[5]; Severe Renal Impairment, VER001-11, 500 mg",18.9 days
same,t1/2,"[5]; Severe Renal Impairment, VER001-11, 1000 mg",19.5 days
same,increase in concentrations through the first week post-dose vs normal renal function,[5]; subjects with severe renal impairment (VER001-11),40%
same,MIC range,S. pneumoniae [6],0.004 to 0.03 µg/mL
same,MBC,S. aureus [7]; S. aureus strain 307109,0.12 µg/mL
same,MBC,S. aureus [7]; SA31005,0.12 µg/mL
same,MIC range,S. aureus [7]; six S. aureus isolates,0.06 to 0.12 µg/mL
same,"MICs against Gram-positive isolates, including MRSA (range)",[8]; baseline isolates of the SSTI trial,0.016 to 0.25 mg/L
same,"Dalbavancin MIC, Miscellaneous Streptococcus and nontypeable strains",[8]; Single dose Dalbavancin (1100 mg) arm,(0.016)
same,"Dalbavancin MIC, Miscellaneous Streptococcus and nontypeable strains",[8]; Two-dose Dalbavancin (1000/500 mg) arm,(0.016)
same,t1/2,[9]; Mild Hepatic Impairment,323 (27) h
same,t1/2,[9]; Moderate Hepatic Impairment,320 (24) h
same,t1/2,[9]; Normal Hepatic Function,321 (24) h
same,t1/2,[9]; Severe Hepatic Impairment,322 (68) h
same,ED50,MRSA Staph. aureus 3817,0.7 mg/kg
same,premature discontinuation of treatment due to an AE,[10],No dalbavancin-treated patient discontinued treatment prematurely due to an AE
same,MBC relative to MIC,"S. aureus [11]; S. aureus, MBC higher than MIC",2 to 4 fold
same,MBC,S. aureus [11]; SA25923,0.50 µg/mL
same,AUC,[12]; 500 mg,24376 ± 6615 µg·h/mL
same,AUC14,[12]; 1000 mg,~22000′ mg · h/L
same,AUC42,[12]; 1000 mg,23137 ± 3326 µg·h/mL

# Reference: US20170190744A1 (Vicuron Pharmaceuticals, Inc., priority 2015, published 2017)
